Measurements taken from ChEMBL document CHEMBL4145517, “Advances on photodynamic therapy of melanoma through novel ring-fused 5,15-diphenylchlorins” (Eur J Med Chem, 2018).
pIC50: −log10 of the molar value. Activity calls are given as the source filed them. The calls are words filed in the database; no cut-off is given here.

Test system: A-375
Assay: Disruption of mitochondrial membrane potential in human A375 cells at 500 nM preincubated for 24 hrs followed by exposure to light with fluence rate of 7.5 mW/cm2 at 10 J and measured after 24 hrs by JC-1 staining-based assay
Format: functional, cell-based
Conditions: not given
In the case of `OCc1nn2c(c1CO)CC1c3cc4ccc([nH]4)c(-c4ccccc4)c4nc(cc5ccc([nH]5)c(-c5ccccc5)c(n3)C1C2)C=C4` (stereo unspecified), the Activity was “Active”.

Test system: A-375
Assay: Cell cycle arrest in human A375 cells assessed as accumulation at pre-G0 phase up to 500 nM preincubated for 24 hrs followed by exposure to light with fluence rate of 7.5 mW/cm2 at 10 J and measured after 24 hrs by propidium iodide/RNase-staining based flow cytometric analysis
Format: functional
Conditions: not given
For `OCc1nn2c(c1CO)CC1c3cc4ccc([nH]4)c(-c4ccccc4)c4nc(cc5ccc([nH]5)c(-c5ccccc5)c(n3)C1C2)C=C4` (stereo unspecified), the Activity was “Active”.

Test system: not listed separately
Assay: Dark toxicity against human HFF1 cells at 1 to 10 uM after 24 hrs by MTT assay
Format: cell-based
Conditions: hff-1, 24 h
With `OCc1nn2c(c1CO)CC1c3cc4ccc([nH]4)c(-c4ccccc4)c4nc(cc5ccc([nH]5)c(-c5ccccc5)c(n3)C1C2)C=C4` (stereo unspecified) the Activity was “Non-Toxic”.

Test system: A-375
Assay: Photocytotoxicity against human A375 cells preincubated for 24 hrs followed by exposure to light with fluence rate of 7.5 mW/cm2 until 10 J measured after 24 hrs by MTT assay
Format: functional, cell-based
Conditions: not given
For `OCc1nn2c(c1CO)CC1c3cc4ccc([nH]4)c(-c4ccccc4)c4nc(cc5ccc([nH]5)c(-c5ccccc5)c(n3)C1C2)C=C4` (stereo unspecified), the pIC50 was 8.31.

Test system: not listed separately
Assay: Drug uptake in human A375 cells preincubated for 24 hrs followed by exposure to light with fluence rate of 7.5 mW/cm2 at 10 J measured after 24 hrs by fluorescence spectroscopic analysis
Format: ADME, cell-based
Conditions: a-375, 24 h
With `OCc1nn2c(c1CO)CC1c3cc4ccc([nH]4)c(-c4ccccc4)c4nc(cc5ccc([nH]5)c(-c5ccccc5)c(n3)C1C2)C=C4` (stereo unspecified) the Drug uptake was “Dose-dependent effect”.

Test system: A-375
Assay: Photocytotoxicity against human A375 cells at 5 to 50 nM preincubated for 24 hrs followed by exposure to light with fluence rate of 7.5 mW/cm2 until 20J and measured after 24 hrs by MTT assay
Format: functional, cell-based
Conditions: not given
With `OCc1nn2c(c1CO)CC1c3cc4ccc([nH]4)c(-c4ccccc4)c4nc(cc5ccc([nH]5)c(-c5ccccc5)c(n3)C1C2)C=C4` (stereo unspecified) the Activity was “Active”.

Test system: A-375
Assay: Increase in expression of reduced glutathione in human A375 cells up to 500 nM preincubated for 24 hrs followed by exposure to light with fluence rate of 7.5 mW/cm2 at 10 J and measured after 24 hrs by mercury orange staining-based fluorescence analysis
Format: functional, cell-based
Conditions: not given
In the case of `OCc1nn2c(c1CO)CC1c3cc4ccc([nH]4)c(-c4ccccc4)c4nc(cc5ccc([nH]5)c(-c5ccccc5)c(n3)C1C2)C=C4` (stereo unspecified), the Activity was “inactive”.

Test system: A-375
Assay: Photocytotoxicity against human A375 cells assessed as decrease in cell viability by measuring protein content at >= 50 nM preincubated for 24 hrs followed by exposure to light with fluence rate of 7.5 mW/cm2 at 10 J and measured after 24 hrs by sulforhodamine B assay
Format: functional, cell-based
Conditions: not given
In the case of `OCc1nn2c(c1CO)CC1c3cc4ccc([nH]4)c(-c4ccccc4)c4nc(cc5ccc([nH]5)c(-c5ccccc5)c(n3)C1C2)C=C4` (stereo unspecified), the Activity was “Active”.

Test system: A-375
Assay: Induction of apoptosis in human A375 cells at 50 nM preincubated for 24 hrs followed by exposure to light with fluence rate of 7.5 mW/cm2 at 10 J and measured after 24 hrs by Annexin-V/propidium iodide staining-based FACS analysis
Format: functional, cell-based
Conditions: not given
For `OCc1nn2c(c1CO)CC1c3cc4ccc([nH]4)c(-c4ccccc4)c4nc(cc5ccc([nH]5)c(-c5ccccc5)c(n3)C1C2)C=C4` (stereo unspecified), the Activity was “Active”.

Test system: A-375
Assay: Induction of p53 expression in human A375 cells at 50 nM preincubated for 24 hrs followed by exposure to light with fluence rate of 7.5 mW/cm2 at 10 J and measured after 24 hrs by Western blot analysis
Format: functional, cell-based
Conditions: not given
For `OCc1nn2c(c1CO)CC1c3cc4ccc([nH]4)c(-c4ccccc4)c4nc(cc5ccc([nH]5)c(-c5ccccc5)c(n3)C1C2)C=C4` (stereo unspecified), the Activity was “Active”.

Test system: A-375
Assay: Cell cycle arrest in human A375 cells assessed as accumulation at G1 phase up to 500 nM preincubated for 24 hrs followed by exposure to light with fluence rate of 7.5 mW/cm2 at 10 J and measured after 24 hrs by propidium iodide/RNase-staining based flow cytometric analysis
Format: functional
Conditions: not given
In the case of `OCc1nn2c(c1CO)CC1c3cc4ccc([nH]4)c(-c4ccccc4)c4nc(cc5ccc([nH]5)c(-c5ccccc5)c(n3)C1C2)C=C4` (stereo unspecified), the Activity was “Active”.

Test system: not listed separately
Assay: Dark toxicity against human A375 cells at 1 to 10 uM after 24 hrs by MTT assay
Format: cell-based
Conditions: a-375, 24 h
With `OCc1nn2c(c1CO)CC1c3cc4ccc([nH]4)c(-c4ccccc4)c4nc(cc5ccc([nH]5)c(-c5ccccc5)c(n3)C1C2)C=C4` (stereo unspecified) the Activity was “Non-Toxic”.

Test system: A-375
Assay: Disruption of mitochondrial membrane potential in human A375 cells at 50 nM preincubated for 24 hrs followed by exposure to light with fluence rate of 7.5 mW/cm2 at 10 J and measured after 24 hrs by JC-1 staining-based assay
Format: functional, cell-based
Conditions: not given
With `OCc1nn2c(c1CO)CC1c3cc4ccc([nH]4)c(-c4ccccc4)c4nc(cc5ccc([nH]5)c(-c5ccccc5)c(n3)C1C2)C=C4` (stereo unspecified) the Activity was “Active”.

Test system: A-375
Assay: Induction of apoptosis in human A375 cells assessed as increase in necrotic cells at 500 nM preincubated for 24 hrs followed by exposure to light with fluence rate of 7.5 mW/cm2 at 10 J and measured after 24 hrs by Annexin-V/propidium iodide stainin-based FACS analysis
Format: functional, cell-based
Conditions: not given
In the case of `OCc1nn2c(c1CO)CC1c3cc4ccc([nH]4)c(-c4ccccc4)c4nc(cc5ccc([nH]5)c(-c5ccccc5)c(n3)C1C2)C=C4` (stereo unspecified), the Activity was “Active”.

Test system: A-375
Assay: Photocytotoxicity against human A375 cells at 5 to 500 nM preincubated for 24 hrs followed by exposure to light with fluence rate of 7.5 mW/cm2 until 5 to 10 J and measured after 24 hrs by MTT assay
Format: functional, cell-based
Conditions: not given
For `OCc1nn2c(c1CO)CC1c3cc4ccc([nH]4)c(-c4ccccc4)c4nc(cc5ccc([nH]5)c(-c5ccccc5)c(n3)C1C2)C=C4` (stereo unspecified), the Activity was “Active”.

Test system: A-375
Assay: Decrease in intracellular superoxide anion generation in human A375 cells at 500 nM preincubated for 24 hrs followed by exposure to light with fluence rate of 7.5 mW/cm2 at 10 J and measured after 24 hrs by dihydroethidium staining-based fluorescence analysis
Format: functional, cell-based
Conditions: not given
With `OCc1nn2c(c1CO)CC1c3cc4ccc([nH]4)c(-c4ccccc4)c4nc(cc5ccc([nH]5)c(-c5ccccc5)c(n3)C1C2)C=C4` (stereo unspecified) the Activity was “Active”.

Test system: A-375
Assay: Decrease in intracellular peroxides generation in human A375 cells at 500 nM preincubated for 24 hrs followed by exposure to light with fluence rate of 7.5 mW/cm2 at 10 J and measured after 24 hrs by DCFH2-DA staining-based fluorescence analysis
Format: functional, cell-based
Conditions: not given
In the case of `OCc1nn2c(c1CO)CC1c3cc4ccc([nH]4)c(-c4ccccc4)c4nc(cc5ccc([nH]5)c(-c5ccccc5)c(n3)C1C2)C=C4` (stereo unspecified), the Activity was “Active”.

Test system: A-375
Assay: Induction of apoptosis in human A375 cells assessed as decrease in living cells at 500 nM preincubated for 24 hrs followed by exposure to light with fluence rate of 7.5 mW/cm2 at 10 J and measured after 24 hrs by Annexin-V/propidium iodide stainin-based FACS analysis
Format: functional
Design: scale not given: the % may be the effect or the level left
Conditions: not given
With `OCc1nn2c(c1CO)CC1c3cc4ccc([nH]4)c(-c4ccccc4)c4nc(cc5ccc([nH]5)c(-c5ccccc5)c(n3)C1C2)C=C4` (stereo unspecified) the Activity was >50%.

Test system: A-375
Assay: Phototoxicity against human A375 cells assessed as reduction in cell viability up to 500 nM preincubated for 24 hrs followed by exposure to light with fluence rate of 7.5 mW/cm2 at 10 J and measured after 24 hrs in presence of hydroxyl radical scavenger D-mannitol by MTT assay
Format: functional, cell-based
Conditions: not given
In the case of `OCc1nn2c(c1CO)CC1c3cc4ccc([nH]4)c(-c4ccccc4)c4nc(cc5ccc([nH]5)c(-c5ccccc5)c(n3)C1C2)C=C4` (stereo unspecified), the Activity was “Active”.

Test system: A-375
Assay: Cell cycle arrest in human A375 cells assessed as accumulation at G2/M phase up to 500 nM preincubated for 24 hrs followed by exposure to light with fluence rate of 7.5 mW/cm2 at 10 J and measured after 24 hrs by propidium iodide/RNase-staining based flow cytometric analysis
Format: functional
Conditions: not given
For `OCc1nn2c(c1CO)CC1c3cc4ccc([nH]4)c(-c4ccccc4)c4nc(cc5ccc([nH]5)c(-c5ccccc5)c(n3)C1C2)C=C4` (stereo unspecified), the Activity was “Active”.

Test system: A-375
Assay: Phototoxicity against human A375 cells assessed as reduction in cell viability up to 500 nM preincubated for 24 hrs followed by exposure to light with fluence rate of 7.5 mW/cm2 at 10 J and measured after 24 hrs in presence of singlet oxygen scavenger sodium azide by MTT assay
Format: functional, cell-based
Conditions: not given
With `OCc1nn2c(c1CO)CC1c3cc4ccc([nH]4)c(-c4ccccc4)c4nc(cc5ccc([nH]5)c(-c5ccccc5)c(n3)C1C2)C=C4` (stereo unspecified) the Activity was “inactive”.
